Assay results reported in PubChem BioAssay (NCI).
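All cell lines were grown in 96-well plates and treated with compound for 48 hours. At the TGI there is no net growth.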

Tests used:
Assay in all cases: NCI tumour cell line growth inhibition, 48 h
HOP-92 NSCLC = system: HOP-92 NSCLC
BT-549 breast = system: BT-549 breast
MDA-MB-435 = system: MDA-MB-435
IGROV1 ovarian = system: IGROV1 ovarian
MOLT-4 leukemia = system: MOLT-4 leukemia
M14 melanoma = system: M14 melanoma
HL-60(TB) leukemia = system: HL-60(TB) leukemia
A498 renal = system: A498 renal
U251 CNS = system: U251 CNS
SK-MEL-5 melanoma = system: SK-MEL-5 melanoma
SNB-19 CNS = system: SNB-19 CNS
TK-10 renal = system: TK-10 renal
EKVX NSCLC = system: EKVX NSCLC

| Structure (SMILES) | TGI (HOP-92 NSCLC) [µM] | TGI (BT-549 breast) [µM] | TGI (MDA-MB-435) [µM] | TGI (IGROV1 ovarian) [µM] | TGI (MOLT-4 leukemia) [µM] | TGI (M14 melanoma) [µM] | TGI (HL-60(TB) leukemia) [µM] | TGI (A498 renal) [µM] | TGI (U251 CNS) [µM] | TGI (SK-MEL-5 melanoma) [µM] | TGI (SNB-19 CNS) [µM] | TGI (TK-10 renal) [µM] | TGI (EKVX NSCLC) [µM] |
| --- | --- | --- | --- | --- | --- | --- | --- | --- | --- | --- | --- | --- | --- |
| N#CC(Nc1ccccc1)c1ccc(C(C#N)Nc2ccccc2)cc1 (stereo not drawn) | > 100 | > 100 | > 100 | > 100 | > 100 | > 100 | 34.3 | > 100 | > 100 | > 100 | > 100 | > 100 | > 100 |
| CC(=O)NC1C(O)C(O)C(CO)OC1n1ncc(=O)[nH]c1=O (stereo not drawn) | > 100 | > 100 | > 100 | > 100 | > 100 | > 100 | > 100 | > 100 | > 100 | > 100 | > 100 | > 100 | > 100 |
| CNn1c(C)n[nH]c1=O | > 100 | > 100 | > 100 | > 100 | > 100 | > 100 | > 100 | > 100 | > 100 | > 100 | > 100 | > 100 | > 100 |
| COc1ccc(-c2c(CN3CCOCC3)sc3nc4ccccc4n23)cc1 | > 100 | > 100 | 14.4 | > 86.8 | > 100 | > 100 | > 73.2 | 72.4 | 41.5 | 98.8 | > 57.1 | > 100 | > 57.4 |
| CC(=O)OC1COC(n2c(-c3ccc(Cl)cc3)cc(-c3ccccc3)c(C#N)c2=S)C(OC(C)=O)C1OC(C)=O (stereo not drawn) | 28.8 | > 81.8 | > 62.4 | > 31.6 | > 100 | > 31.6 | > 89.9 | 34.1 | 15.5 | > 42.2 | > 79.6 | > 73.4 | > 100 |
| [O-][n+]1onc(-c2ccccc2)c1CN1CCOCC1 | > 100 | > 100 | > 100 | > 100 | 94.1 | > 100 | > 100 | > 100 | > 100 | > 100 | > 100 | > 100 | > 100 |
